Laboratory results from patent US20150272939A1, “Identification of Small Molecule Inhibitors of Jumonji AT-Rich Interactive Domain 1A (JARID1A) and 1B (JARID1B) Histone Demethylase” (Yale University, priority 2012, published 2015).
Where “and” joins values, the source holds several entries; their conditions need not be identical. Equal values may be shown once. Read-outs that look alike come from different tables or passages of the source.

Key:
JARID1A = biological target: T1, JARID1A (Homo sapiens, UniProt P29375); assay: FLAG-JARID1A histone demethylase assay with AlphaScreen detection (HTS and dose response); format: biochemical; conditions: for IC50: dose response, 50 μM Fe (II), read-out: IC50 against JARID1A
T1 construct: the high-throughput screen of the invention utilizes full length JARID1A or JARID1B; FLAG (N); made in house; host or cells: Sf21 insect cells (baculovirus)
Protocol: (§1) Histone demethylase assays were performed in 384 well white plates (Corning 3574). Demethylase buffer conditions for FLAG-JARID1B were as follows: 10 μM α-KG, 100 μM ascorbate, 50 μM (NH4)2Fe(SO4)2, 50 mM Hepes (pH 7.5), 0.01% (v/v) Tween 20, and 0.1% (w/v) bovine serum albumin. The demethylase reactions included 64 nM bio-H3K4me3 peptide alone or in the presence of 4 nM FLAG-JARID1B enzyme in a 10 μl reaction at 25° C. for 30 minutes. As a positive control, 64 nM bio-H3K4me2 peptide was assayed in the absence of enzyme. Assay conditions for FLAG-JARID1C is the same as for FLAG-JARID1B except that 20 nM enzyme was used. For FLAG-JARID1A, the demethylase buffer was similar to FLAG-JARID1B, except that 125 μM α-KG and 13 nM FLAG-JARID1A enzyme were used. The His-FLAG-UTX and FLAG-JMJD3 demethylase assays also employed the same buffer conditions as for FLAG-JARID1B, with 64 nM bio-H3K27me3 peptide assayed with or without 25 nM His-FLAG-UTX enzyme or 50 nM FLAG-JMJD3 (BPS Bioscience, 50115), and 64 nM bio-H3K27me2 peptide as a positive control. JARID1A, JARID1C, UTX, and JMJD3 histone demethylase assays proceeded at 37° C. for 1 hour.
(§2) The AlphaScreen General IgG (Protein A) detection kit was obtained from PerkinElmer. Demethylated H3K4 products were detected using AlphaScreen antibody/bead mix containing 7.5 mM ethylenediaminetetraacetic acid (EDTA) and 0.15 μg/ml anti-H3K4me1 antibody in a final volume of 20 μl. For detection of demethylated H3K27 products, the AlphaScreen antibody/bead mix containing 7.5 mM EDTA and 0.15 μg/ml anti-H3K27me2 antibody in a final volume of 20 μl. The luminescence signal was measured using the Envision (PerkinElmer) or Pherastar (BMG Labtech) Platereaders.
FLAG-JARID1A was screened against 9,600 compounds. These compound libraries were from the Yale Center for Molecular Discovery. The libraries screened include the MicroSource Gen-Plus, MicroSource Pure Natural Products, NIH Clinical Collection, Enzo Epigenetics, and ChemBridge MW-Set libraries. Compounds dissolved in dimethyl sulfoxide (DMSO) were pintooled into a 384 well plate containing bio-H3K4me3 peptide in demethylase buffer to a final concentration of 20 μM. The reactions were initiated by the addition of 13 nM FLAG-JARID1A, and detected as described above. To eliminate the false positive hits, a counterscreen was performed against bio-H3K4me2 in the absence of enzyme.

UTX = biological target: T2, UTX (Homo sapiens, UniProt O15550); assay: His-FLAG-UTX H3K27me3 demethylase assay with AlphaScreen detection; format: biochemical; conditions: compound 10 μM, 64 nM bio-H3K27me3 peptide
T2 construct: His (N); FLAG (N); made in house; host or cells: Sf21 insect cells (baculovirus)
Protocol: as §1, with “The His-FLAG-UTX and FLAG-JMJD3 demethylase assays also employed the same buffer conditions as for FLAG-JARID1B, with 64 nM bio-H3K27me3 peptide assayed with or without 25 nM His-FLAG-UTX enzyme or 50 nM FLAG-JMJD3 (BPS Bioscience, 50115), and 64 nM bio-H3K27me2 peptide as a positive control. JARID1A, JARID1C, UTX, and JMJD3 histone demethylase assays proceeded at 37° C. for 1 hour.” left out
The AlphaScreen General IgG (Protein A) detection kit was obtained from PerkinElmer. Demethylated H3K4 products were detected using AlphaScreen antibody/bead mix containing 7.5 mM ethylenediaminetetraacetic acid (EDTA) and 0.15 μg/ml anti-H3K4me1 antibody in a final volume of 20 μl. […] The luminescence signal was measured using the Envision (PerkinElmer) or Pherastar (BMG Labtech) Platereaders.

JARID1C = biological target: T3, JARID1C (Homo sapiens, UniProt P41229); assay: FLAG-JARID1C histone demethylase assay with AlphaScreen detection; format: biochemical; conditions: compound 10 μM, 64 nM bio-H3K4me3 peptide
T3 construct: FLAG (N); made in house; host or cells: Sf21 insect cells (baculovirus)
Protocol: as §1, §2

JARID1B = biological target: T4, JARID1B (Homo sapiens, UniProt Q9UGL1); assay: FLAG-JARID1B histone demethylase assay with AlphaScreen detection (HTS and dose response); format: biochemical; conditions: for Assay − Artifact Signal (percent): assay signal minus artifact signal; for inhibition at 20 µM / Inhibitory effect (percent): high-throughput screen, compound 20 μM; for inhibition at 20 µM: read-out: Inhibitory effect (percent); for Assay Signal (percent): effect of compound in JARID1B AlphaScreen assay;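 as to Assay Signal (percent): compound tested at 20 µM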;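 as to Assay − Artifact Signal (percent): compound tested at 20 µM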;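 as to all read-outs here: FLAG-tagged JARID1B at 4 nM acting on a biotinylated H3K4me3 peptide, demethylation read by AlphaScreen luminescence, with hits checked against bio-H3K4me2 without enzyme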
T4 construct: The FLAG tagged full length JARID1B enzyme was expressed in Sf21 insect cells using FLAG-JARID1B baculoviruses; FLAG (N); made in house; host or cells: Sf21 insect cells (baculovirus)

[1] = AlphaScreen counterscreen against bio-H3K4me2 peptide in the absence of enzyme (artifact signal); conditions: for Artifact Signal (percent): effect of the compound when incubated with bio-H3K4me2 peptide (counterscreen, no enzyme);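 as to all read-outs here: counterscreen run without enzyme against bio-H3K4me2 peptide to remove false positive hits from the JARID1 demethylase AlphaScreen screen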
[2] = compound 10 μM, 64 nM bio-H3K4me3 peptide
[3] = standard demethylase conditions (10 μM α-KG, 50 μM Fe (II))

T4 sequence (Q9UGL1 whole entry): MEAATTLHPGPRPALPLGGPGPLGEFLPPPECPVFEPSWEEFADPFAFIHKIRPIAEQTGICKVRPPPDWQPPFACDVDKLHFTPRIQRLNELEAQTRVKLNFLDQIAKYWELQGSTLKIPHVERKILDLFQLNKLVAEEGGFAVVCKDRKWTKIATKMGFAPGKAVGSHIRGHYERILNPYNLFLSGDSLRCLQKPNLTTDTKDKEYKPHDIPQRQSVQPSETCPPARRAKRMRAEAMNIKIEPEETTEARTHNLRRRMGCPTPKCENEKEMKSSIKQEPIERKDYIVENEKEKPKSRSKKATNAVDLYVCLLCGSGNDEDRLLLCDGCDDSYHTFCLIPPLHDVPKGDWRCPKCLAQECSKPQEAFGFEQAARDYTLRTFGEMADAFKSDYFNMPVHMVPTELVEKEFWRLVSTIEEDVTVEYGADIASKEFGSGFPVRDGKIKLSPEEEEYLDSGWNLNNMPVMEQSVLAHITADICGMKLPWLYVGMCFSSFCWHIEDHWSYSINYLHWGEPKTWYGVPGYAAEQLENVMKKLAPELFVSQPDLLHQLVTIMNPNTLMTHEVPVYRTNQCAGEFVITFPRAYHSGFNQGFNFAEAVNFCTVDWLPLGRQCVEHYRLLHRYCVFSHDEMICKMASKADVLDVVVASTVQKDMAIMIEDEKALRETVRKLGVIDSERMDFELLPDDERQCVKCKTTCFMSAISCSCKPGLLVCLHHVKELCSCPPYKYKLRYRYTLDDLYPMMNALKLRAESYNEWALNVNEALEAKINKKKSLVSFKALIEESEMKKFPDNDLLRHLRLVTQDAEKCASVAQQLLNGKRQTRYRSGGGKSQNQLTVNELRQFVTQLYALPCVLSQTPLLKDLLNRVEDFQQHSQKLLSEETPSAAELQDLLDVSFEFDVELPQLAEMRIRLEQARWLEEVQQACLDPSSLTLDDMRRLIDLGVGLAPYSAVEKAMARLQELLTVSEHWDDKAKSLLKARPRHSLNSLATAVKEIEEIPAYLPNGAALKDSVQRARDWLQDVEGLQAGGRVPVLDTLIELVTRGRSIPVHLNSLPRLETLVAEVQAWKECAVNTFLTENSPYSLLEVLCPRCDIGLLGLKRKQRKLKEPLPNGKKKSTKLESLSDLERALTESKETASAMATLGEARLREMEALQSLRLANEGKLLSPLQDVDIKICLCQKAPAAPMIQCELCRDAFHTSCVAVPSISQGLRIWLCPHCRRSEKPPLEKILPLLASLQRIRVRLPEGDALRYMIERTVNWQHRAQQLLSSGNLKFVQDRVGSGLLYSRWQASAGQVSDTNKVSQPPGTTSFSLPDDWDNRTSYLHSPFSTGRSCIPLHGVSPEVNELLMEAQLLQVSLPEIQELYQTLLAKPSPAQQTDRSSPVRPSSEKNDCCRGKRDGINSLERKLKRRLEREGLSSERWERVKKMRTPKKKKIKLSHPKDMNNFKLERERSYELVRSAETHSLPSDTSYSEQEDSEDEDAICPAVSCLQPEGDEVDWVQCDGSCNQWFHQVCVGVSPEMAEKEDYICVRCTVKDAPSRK
T1 sequence (P29375 whole entry): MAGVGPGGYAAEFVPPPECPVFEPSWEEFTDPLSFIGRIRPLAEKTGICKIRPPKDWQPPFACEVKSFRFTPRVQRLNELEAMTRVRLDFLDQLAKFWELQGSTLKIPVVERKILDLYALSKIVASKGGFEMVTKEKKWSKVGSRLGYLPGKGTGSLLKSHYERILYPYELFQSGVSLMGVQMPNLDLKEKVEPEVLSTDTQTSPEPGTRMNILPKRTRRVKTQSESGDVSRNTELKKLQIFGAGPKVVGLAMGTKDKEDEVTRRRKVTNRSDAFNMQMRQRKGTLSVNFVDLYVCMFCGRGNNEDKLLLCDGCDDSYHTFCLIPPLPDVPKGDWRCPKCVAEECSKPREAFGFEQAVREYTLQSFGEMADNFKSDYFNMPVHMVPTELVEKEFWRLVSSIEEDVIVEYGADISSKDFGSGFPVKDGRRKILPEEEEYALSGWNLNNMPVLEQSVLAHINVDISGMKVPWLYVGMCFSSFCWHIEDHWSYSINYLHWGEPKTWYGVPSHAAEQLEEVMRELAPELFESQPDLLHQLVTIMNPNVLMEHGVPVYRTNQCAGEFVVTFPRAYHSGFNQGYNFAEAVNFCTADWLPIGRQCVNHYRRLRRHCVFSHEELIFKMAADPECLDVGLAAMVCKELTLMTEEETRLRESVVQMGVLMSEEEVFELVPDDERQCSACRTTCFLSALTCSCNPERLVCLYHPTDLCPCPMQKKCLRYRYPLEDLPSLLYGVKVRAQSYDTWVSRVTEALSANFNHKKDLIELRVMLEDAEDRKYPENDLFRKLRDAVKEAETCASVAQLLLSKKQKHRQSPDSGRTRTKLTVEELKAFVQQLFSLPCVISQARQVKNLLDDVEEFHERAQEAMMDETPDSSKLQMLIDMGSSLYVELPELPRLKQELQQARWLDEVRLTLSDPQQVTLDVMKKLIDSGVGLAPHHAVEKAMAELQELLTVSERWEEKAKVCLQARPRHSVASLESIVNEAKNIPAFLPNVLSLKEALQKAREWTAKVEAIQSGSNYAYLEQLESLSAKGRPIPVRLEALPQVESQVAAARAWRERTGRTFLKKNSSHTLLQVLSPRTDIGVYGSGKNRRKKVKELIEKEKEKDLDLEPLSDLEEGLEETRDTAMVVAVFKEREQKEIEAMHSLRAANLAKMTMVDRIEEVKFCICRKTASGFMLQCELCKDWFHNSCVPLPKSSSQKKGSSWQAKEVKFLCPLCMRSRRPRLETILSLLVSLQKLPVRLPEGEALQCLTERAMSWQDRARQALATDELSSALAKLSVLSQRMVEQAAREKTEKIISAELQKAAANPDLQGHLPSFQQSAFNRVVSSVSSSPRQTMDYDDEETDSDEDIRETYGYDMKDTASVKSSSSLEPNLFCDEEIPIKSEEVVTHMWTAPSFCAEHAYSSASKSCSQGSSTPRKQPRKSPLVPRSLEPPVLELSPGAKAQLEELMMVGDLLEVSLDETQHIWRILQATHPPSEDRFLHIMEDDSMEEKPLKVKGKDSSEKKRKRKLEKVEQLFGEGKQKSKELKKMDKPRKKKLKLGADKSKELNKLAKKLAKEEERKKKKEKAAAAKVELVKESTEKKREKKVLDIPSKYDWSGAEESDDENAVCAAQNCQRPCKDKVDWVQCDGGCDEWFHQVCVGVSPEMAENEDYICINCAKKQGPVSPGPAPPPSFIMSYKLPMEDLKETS
T2 sequence (O15550 whole entry): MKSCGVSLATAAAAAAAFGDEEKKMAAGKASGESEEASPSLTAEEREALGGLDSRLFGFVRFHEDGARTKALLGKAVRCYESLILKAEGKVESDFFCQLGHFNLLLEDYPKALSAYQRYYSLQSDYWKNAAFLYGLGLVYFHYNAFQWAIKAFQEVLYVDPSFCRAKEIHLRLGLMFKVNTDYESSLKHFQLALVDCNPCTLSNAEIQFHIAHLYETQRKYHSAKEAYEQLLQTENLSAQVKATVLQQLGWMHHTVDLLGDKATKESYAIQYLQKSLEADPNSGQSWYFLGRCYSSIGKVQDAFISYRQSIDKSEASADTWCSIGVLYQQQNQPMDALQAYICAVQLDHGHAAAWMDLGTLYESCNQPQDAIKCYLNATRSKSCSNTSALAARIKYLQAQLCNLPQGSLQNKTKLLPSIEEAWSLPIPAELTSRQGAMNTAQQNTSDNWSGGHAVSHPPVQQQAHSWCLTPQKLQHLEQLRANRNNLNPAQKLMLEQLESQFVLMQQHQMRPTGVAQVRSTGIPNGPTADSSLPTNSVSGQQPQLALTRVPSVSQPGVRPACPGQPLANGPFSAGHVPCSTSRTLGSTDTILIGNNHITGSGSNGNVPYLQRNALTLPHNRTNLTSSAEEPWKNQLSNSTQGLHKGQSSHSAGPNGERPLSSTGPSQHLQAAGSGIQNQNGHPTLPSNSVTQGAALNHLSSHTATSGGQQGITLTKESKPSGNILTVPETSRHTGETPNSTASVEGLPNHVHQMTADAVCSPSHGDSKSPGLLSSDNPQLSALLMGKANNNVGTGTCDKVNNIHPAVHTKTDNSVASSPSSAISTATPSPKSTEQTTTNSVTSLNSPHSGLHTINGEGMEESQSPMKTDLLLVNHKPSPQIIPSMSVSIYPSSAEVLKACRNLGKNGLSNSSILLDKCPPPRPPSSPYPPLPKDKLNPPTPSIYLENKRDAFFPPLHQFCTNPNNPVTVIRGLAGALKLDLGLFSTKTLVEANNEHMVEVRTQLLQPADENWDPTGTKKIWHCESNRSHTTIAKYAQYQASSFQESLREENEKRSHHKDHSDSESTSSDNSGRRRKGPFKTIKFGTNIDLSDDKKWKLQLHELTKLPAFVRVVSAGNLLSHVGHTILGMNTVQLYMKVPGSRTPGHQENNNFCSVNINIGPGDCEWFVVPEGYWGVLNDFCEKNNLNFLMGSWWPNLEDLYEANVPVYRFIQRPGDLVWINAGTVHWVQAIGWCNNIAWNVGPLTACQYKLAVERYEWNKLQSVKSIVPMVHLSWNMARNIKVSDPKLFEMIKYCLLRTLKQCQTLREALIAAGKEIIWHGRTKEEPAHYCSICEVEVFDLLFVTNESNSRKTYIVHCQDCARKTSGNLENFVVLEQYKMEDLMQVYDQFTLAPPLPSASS

Row | Compound | IC50 (JARID1A) | Assay − Artifact Signal (percent) (JARID1B) | Assay Signal (percent) (JARID1B; validation of HTS actives) | Artifact Signal (percent) [1] | Inhibitory effect (percent) (JARID1B; [3]) | also measured
1 | O=C(O)c1ccnc(C(=O)O)c1 [2,4-PDCA, 2,4-pyridinedicarboxylic acid monohydrate, reference compound] | 4.1 µM and ~4 µM |  |  |  |  | JARID1A demethylase activity (JARID1A; [2]): inhibited; UTX demethylase activity (UTX): did not inhibit; JARID1C demethylase activity (JARID1C): inhibited; JARID1B demethylase activity (JARID1B; [2]): inhibited
2 | Sc1ncnc2nc[nH]c12 [Mercaptopurine] | ~1 µM |  |  |  |  | 
3 | C[C@](N)(Cc1ccc(O)c(O)c1)C(=O)O [Methyldopa] | > 1 µM |  |  |  |  | 
4 | COc1ccc(OC)c(Nc2nc(=O)c3cccnc3s2)c1 [YU151897] | ≤ 3 µM | 42.55% | 40.43% | −2.12% |  | inhibition at 20 µM (JARID1B; [3]): 47.6%
5 | COC(=O)c1cc(Br)c(OCc2ccccc2)c(CO[Si](C(C)(C)C)(C(C)(C)C)C(C)(C)C)c1OCc1ccccc1 [YU221143] |  | 26.59% | 22.60% | −3.99% |  | inhibition at 20 µM (JARID1B; [3]): 40.9%
6 | O=C(O)c1ccnc(C(=O)O)c1 [YU221215, 2,4-Pyridinedicarboxylic Acid, reference compound] |  | 96.69% | 99.69% | 3.00% |  | inhibition at 20 µM (JARID1B; IDs marked *: additional hits under reaction condition with 1 mM α-KG): 40.8%
7 | BACITRACIN [YU033699, reference compound] |  |  |  |  | 74.07% | Validation result of HTS active: effect of the compound in the JARID1B AlphaScreen demethylase assay (JARID1B; validation of HTS actives, total signal before subtraction of artifact signal): 6.01; Artifact signal: effect of the compound when it is incubated with bio-H3K4me2 peptide ([1]; counterscreen, bio-H3K4me2 peptide, no enzyme): −1.65
8 | CALCEIN [YU034124, reference compound] |  | 36.96% | 33.76% | −3.21% | 60.48% | 
9 | CARMINIC ACID [YU155214, reference compound] |  | 54.26% | 78.58% | 24.32% | 65.23% | 
